Data: patent publication US20130084319A1, “BROAD-SPECTRUM ANTIMICROBIAL COMPOSITIONS BASED ON COMBINATIONS OF TAUROLIDINE AND PROTAMINE AND MEDICAL DEVICES CONTAINING SUCH COMPOSITIONS” (priority 2011, published 2013)

Key:
[1] = test system: Staphylococcus aureus ACTT 6538; experiment: in vitro bacteria attachment assay on coated surgical mesh discs in SST medium; format: cell-based; conditions: serum containing media
Description: (§1) Taurolidine was dissolved at 4% wt./vol. in a 70% acetone 30% water vol./vol. mixture. Protamine sulfate was dissolved at 10% wt./vol. in water under warming. 50 μl of the taurolidine (TU) solution and 20 μl of the protamine (PS) solution were applied to each mesh disk using a pipette and allowed to dry at 50° C. until the majority of the liquid was gone and then stored under vacuum. First the taurolidine solution was applied, and then immediately thereafter the protamine sulfate solution was applied. The in vitro bacteria attachment assay was developed for its utility of indicating biofilm prevention potential of prototype mesh. Since bacterial attachment to a surface is the first step of biofilm formation, a surface treatment that inhibits bacterial attachment would reduce the chance of subsequent biofilm formation. The assay was conducted in SST (Serum Saline TSB) medium to mimic in vivo and clinical conditions. The formulation of SST is Tryptic Soy Broth (TSB):serum:saline in the ratio of 1:2:7. Each test article was incubated in SST inoculated with Staphylococcus aureus ACTT 6538 or Escherichia coli ATCC 25922 at about 6 Log CFU/ml. […] Viable bacteria populations were measured by plate count on TSA (Tryptic Soy agar) medium contain neutralizing agents. […]

[2] = test system: Escherichia coli ATCC 25922; experiment: as above; format: cell-based; conditions: serum containing media
Description: as §1

[3] = cited from earlier work

## O=S1(=O)CCN(CN2CCS(=O)(=O)NC2)CN1 [TU, bis(1,1-dioxoperhydro-1,2,4-thiadiazinyl-4)-methane]
[1]
  inhibition of attachment by S. aureus to treated mesh surface: less inhibition than the combination
[2]
  inhibition of attachment by E. coli to treated mesh surface: less inhibition than the combination
[3]; cumulative doses
  cumulative dose shown to be safe and well tolerated: exceeding 300 g
[3]; systemic doses
  systemic dose shown to be safe and well tolerated: exceeding 40 g/day
